Source: BindingDB's records for PubMed 11454918
Where a name gives a salt, the structure may show the parent alone.

Legend:
[1] = biological target: T1, Alpha-2A adrenergic receptor (Homo sapiens, UniProt P08913)
T1 sequence (P08913 whole entry): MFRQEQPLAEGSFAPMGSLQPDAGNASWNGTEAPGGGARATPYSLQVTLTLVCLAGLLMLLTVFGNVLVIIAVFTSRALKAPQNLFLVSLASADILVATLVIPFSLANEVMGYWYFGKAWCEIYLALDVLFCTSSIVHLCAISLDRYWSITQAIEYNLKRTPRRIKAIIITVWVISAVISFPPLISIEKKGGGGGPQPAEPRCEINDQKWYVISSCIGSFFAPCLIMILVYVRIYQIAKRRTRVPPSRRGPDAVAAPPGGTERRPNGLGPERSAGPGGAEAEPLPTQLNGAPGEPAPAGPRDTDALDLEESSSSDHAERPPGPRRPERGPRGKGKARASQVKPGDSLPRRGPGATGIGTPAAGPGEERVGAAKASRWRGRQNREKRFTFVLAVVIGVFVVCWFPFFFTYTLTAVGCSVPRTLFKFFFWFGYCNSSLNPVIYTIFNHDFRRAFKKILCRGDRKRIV

D(2) dopamine receptor = D(2) dopamine receptor (Homo sapiens, UniProt P14416)
Chain of D(2) dopamine receptor (P14416 whole entry): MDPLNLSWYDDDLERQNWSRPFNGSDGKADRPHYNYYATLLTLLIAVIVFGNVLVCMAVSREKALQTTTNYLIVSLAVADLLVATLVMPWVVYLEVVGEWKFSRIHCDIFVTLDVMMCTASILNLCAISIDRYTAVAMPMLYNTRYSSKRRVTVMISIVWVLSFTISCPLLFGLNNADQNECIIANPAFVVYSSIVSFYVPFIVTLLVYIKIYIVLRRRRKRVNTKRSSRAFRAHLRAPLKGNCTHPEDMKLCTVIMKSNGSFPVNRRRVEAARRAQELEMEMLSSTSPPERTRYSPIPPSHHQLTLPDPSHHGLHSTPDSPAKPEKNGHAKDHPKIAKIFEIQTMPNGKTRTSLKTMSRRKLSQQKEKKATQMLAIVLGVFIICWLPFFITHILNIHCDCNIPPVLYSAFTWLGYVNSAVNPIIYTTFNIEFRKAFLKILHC

[2] = biological target: T2, 5-hydroxytryptamine receptor 2C (Homo sapiens, UniProt P28335)
T2 sequence (P28335 whole entry): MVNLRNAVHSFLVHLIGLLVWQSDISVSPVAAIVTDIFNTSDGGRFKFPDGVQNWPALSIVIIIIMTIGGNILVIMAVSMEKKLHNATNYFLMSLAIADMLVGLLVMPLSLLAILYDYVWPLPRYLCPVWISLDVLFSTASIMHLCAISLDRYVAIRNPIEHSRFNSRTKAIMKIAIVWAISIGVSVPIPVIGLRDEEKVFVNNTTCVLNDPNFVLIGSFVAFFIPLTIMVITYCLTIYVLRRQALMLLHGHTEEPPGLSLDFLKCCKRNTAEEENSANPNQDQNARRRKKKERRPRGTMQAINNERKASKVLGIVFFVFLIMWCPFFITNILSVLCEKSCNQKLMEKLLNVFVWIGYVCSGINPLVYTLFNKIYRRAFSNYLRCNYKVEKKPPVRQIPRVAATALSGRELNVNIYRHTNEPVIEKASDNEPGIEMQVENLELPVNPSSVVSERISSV

[3] = biological target: 5-hydroxytryptamine receptor 1D (Homo sapiens, UniProt P28221)
Chain of 5-hydroxytryptamine receptor 1D (P28221 whole entry): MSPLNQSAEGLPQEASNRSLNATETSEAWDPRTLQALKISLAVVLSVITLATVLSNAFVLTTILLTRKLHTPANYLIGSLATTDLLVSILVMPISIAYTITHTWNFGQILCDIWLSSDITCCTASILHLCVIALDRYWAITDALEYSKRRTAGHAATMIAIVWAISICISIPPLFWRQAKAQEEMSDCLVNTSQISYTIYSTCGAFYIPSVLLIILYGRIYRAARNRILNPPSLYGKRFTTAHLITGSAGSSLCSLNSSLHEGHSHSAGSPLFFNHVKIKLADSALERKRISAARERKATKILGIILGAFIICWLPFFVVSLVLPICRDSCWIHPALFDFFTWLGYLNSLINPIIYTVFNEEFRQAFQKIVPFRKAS

[4] = biological target: T3, 5-hydroxytryptamine receptor 1A (Homo sapiens, UniProt P08908)
T3 sequence (P08908 whole entry): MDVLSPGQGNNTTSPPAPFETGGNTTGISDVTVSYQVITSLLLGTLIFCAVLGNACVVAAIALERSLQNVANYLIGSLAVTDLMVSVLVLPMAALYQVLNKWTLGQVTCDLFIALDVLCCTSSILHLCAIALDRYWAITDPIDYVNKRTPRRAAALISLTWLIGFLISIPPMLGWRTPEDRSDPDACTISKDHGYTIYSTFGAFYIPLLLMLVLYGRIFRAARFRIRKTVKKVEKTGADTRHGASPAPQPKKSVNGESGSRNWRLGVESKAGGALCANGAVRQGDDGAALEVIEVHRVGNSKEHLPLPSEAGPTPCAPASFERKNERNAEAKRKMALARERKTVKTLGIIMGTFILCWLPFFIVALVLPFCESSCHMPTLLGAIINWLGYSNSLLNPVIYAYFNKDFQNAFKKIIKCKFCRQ

[5] = biological target: T4, Alpha-1A adrenergic receptor (Homo sapiens, UniProt P35348)
T4 sequence (P35348 whole entry): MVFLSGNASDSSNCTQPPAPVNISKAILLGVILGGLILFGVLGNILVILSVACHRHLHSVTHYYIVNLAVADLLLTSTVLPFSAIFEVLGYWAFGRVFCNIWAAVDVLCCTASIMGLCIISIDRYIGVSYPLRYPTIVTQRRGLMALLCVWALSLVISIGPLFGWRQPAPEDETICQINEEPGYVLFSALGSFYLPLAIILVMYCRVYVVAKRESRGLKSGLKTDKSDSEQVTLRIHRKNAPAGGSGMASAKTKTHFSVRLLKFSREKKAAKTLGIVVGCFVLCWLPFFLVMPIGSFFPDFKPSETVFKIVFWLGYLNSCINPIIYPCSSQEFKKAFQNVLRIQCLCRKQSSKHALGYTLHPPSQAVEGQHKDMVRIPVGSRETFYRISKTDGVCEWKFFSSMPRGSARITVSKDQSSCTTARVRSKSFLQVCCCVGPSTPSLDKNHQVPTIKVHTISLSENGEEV

[6] = biological target: T5, Alpha-2C adrenergic receptor (Rattus norvegicus, UniProt P22086)
T5 sequence (P22086 whole entry): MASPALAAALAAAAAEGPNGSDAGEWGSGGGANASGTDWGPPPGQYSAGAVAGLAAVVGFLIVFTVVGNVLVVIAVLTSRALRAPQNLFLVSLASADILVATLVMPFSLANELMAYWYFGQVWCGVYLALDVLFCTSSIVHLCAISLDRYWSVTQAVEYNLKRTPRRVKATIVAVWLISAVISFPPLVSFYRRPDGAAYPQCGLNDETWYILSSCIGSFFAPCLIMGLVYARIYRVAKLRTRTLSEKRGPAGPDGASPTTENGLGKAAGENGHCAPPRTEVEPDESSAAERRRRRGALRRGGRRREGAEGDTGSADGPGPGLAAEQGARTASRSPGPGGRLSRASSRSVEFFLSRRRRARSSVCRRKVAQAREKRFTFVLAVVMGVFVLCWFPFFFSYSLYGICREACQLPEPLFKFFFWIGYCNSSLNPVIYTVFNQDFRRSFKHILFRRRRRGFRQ

[7] = biological target: 5-hydroxytryptamine receptor 1B (Homo sapiens, UniProt P28222)
Chain of 5-hydroxytryptamine receptor 1B (P28222 whole entry): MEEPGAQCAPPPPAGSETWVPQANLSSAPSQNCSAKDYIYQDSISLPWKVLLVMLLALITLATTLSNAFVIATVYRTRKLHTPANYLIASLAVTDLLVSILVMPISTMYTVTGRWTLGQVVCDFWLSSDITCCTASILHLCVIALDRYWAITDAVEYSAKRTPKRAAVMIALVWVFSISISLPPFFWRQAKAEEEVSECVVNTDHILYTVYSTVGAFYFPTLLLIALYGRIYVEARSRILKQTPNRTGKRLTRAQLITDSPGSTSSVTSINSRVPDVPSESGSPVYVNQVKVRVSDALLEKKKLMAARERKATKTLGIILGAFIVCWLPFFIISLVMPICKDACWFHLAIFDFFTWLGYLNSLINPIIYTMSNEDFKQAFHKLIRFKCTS

[8] = biological target: Sodium-dependent serotonin transporter (Rattus norvegicus, UniProt P31652)
Chain of Sodium-dependent serotonin transporter (P31652 whole entry): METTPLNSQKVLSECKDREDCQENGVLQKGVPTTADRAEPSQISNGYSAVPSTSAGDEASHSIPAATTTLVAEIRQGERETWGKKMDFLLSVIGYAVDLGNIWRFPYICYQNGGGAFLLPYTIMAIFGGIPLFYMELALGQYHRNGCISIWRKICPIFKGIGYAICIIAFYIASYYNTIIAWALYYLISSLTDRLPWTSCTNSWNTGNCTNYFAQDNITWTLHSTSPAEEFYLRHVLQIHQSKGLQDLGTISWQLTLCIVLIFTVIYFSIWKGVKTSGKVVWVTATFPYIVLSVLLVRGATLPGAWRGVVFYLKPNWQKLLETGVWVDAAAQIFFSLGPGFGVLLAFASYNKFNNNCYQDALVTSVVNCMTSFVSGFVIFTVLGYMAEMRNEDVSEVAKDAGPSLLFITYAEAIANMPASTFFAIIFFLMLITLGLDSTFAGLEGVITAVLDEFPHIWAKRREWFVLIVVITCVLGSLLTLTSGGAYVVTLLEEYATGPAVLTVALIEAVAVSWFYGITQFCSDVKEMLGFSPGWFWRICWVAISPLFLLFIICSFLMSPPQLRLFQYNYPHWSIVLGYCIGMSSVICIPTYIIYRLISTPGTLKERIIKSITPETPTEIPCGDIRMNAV

[9] = biological target: Norepinephrine transporter (Rattus norvegicus, UniProt Q9JIA2)
[10] = biological target: Sodium-dependent dopamine transporter (Homo sapiens, UniProt Q01959)
Chain of Sodium-dependent dopamine transporter (Homo sapiens, UniProt Q01959) (Q01959 whole entry): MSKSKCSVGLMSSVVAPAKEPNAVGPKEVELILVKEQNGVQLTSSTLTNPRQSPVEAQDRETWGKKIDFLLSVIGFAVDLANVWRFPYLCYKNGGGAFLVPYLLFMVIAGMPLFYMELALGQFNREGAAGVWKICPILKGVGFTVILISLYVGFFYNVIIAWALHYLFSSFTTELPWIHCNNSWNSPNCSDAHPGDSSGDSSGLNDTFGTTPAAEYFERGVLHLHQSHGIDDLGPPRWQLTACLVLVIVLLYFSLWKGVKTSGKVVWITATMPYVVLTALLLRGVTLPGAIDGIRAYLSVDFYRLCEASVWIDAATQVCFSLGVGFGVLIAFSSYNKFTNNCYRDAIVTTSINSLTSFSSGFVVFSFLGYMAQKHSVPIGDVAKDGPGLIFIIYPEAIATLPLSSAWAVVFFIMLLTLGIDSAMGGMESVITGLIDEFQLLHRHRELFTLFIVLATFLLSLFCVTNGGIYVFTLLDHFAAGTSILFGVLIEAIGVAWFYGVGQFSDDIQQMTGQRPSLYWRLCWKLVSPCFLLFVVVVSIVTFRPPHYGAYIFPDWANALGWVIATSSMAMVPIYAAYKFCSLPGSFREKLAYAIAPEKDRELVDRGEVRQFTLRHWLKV

[11] = biological target: T6, Alpha-1A adrenergic receptor (Rattus norvegicus, UniProt P43140)
T6 sequence (P43140 whole entry): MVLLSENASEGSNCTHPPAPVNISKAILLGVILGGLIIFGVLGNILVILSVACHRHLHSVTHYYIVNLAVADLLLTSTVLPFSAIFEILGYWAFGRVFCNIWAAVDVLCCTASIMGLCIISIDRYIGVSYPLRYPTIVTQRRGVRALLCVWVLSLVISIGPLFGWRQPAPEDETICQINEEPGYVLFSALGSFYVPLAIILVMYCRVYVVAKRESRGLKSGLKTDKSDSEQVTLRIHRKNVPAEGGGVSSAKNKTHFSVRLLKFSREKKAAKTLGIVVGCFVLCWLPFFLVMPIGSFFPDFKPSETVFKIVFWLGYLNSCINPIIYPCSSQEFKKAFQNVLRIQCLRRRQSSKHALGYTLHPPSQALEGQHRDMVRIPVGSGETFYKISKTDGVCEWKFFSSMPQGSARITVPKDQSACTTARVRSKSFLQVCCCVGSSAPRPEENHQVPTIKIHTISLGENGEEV

[12] = biological target: Sodium-dependent dopamine transporter (Rattus norvegicus, UniProt P23977)
Chain of Sodium-dependent dopamine transporter (Rattus norvegicus, UniProt P23977) (P23977 whole entry): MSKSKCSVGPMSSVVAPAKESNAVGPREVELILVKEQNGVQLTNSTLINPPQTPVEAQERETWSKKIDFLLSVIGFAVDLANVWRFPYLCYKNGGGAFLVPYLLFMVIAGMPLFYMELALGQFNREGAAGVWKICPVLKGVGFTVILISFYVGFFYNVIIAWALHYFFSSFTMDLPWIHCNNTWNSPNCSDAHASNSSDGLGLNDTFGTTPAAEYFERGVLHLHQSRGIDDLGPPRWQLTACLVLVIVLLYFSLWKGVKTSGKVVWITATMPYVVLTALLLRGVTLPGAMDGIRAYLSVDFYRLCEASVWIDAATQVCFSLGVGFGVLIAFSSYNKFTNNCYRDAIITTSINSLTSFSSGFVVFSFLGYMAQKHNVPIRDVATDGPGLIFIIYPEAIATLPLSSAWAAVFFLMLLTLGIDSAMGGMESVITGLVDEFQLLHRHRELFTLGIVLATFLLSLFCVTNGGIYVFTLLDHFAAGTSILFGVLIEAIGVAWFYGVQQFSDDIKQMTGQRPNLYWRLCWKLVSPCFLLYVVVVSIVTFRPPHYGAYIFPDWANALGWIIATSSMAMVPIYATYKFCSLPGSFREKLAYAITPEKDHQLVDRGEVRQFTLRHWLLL

[13] = biological target: Sodium-dependent noradrenaline transporter (Homo sapiens, UniProt P23975)
Chain of Sodium-dependent noradrenaline transporter (P23975 whole entry): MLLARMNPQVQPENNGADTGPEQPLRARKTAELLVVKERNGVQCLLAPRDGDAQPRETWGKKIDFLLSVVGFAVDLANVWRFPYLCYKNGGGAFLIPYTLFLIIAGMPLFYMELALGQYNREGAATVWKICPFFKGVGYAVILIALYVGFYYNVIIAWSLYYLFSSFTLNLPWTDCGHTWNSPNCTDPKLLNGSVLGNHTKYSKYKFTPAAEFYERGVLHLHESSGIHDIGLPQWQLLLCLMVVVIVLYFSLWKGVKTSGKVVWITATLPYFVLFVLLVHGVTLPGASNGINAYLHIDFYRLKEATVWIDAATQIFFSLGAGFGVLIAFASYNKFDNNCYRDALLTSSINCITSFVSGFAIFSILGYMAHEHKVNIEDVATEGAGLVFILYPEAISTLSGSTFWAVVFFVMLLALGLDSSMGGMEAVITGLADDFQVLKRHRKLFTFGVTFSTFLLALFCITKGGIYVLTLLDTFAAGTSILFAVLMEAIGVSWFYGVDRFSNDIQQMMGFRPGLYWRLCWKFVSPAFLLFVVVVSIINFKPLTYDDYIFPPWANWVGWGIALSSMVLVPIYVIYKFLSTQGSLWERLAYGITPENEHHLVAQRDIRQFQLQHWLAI

Row | SMILES | Ki [1] [µM] | Ki (D(2) dopamine receptor) [µM] | Ki [2] [µM] | Ki [3] [µM] | Ki [4] [µM] | Ki [5] [µM] | Ki [6] [µM] | Ki [7] [µM] | Ki [8] [µM] | Ki [9] [µM] | Ki [10] [µM] | Ki [11] [µM] | Ki [12] [µM] | Ki [13] [µM]
1 | COc1ccc(C(CN(C)C)C2(O)CCCCC2)cc1 (configuration not stated) [NSC_62923] | > 10 | > 10 | > 10 | > 10 | > 10 | > 10 | > 10 | – | – | – | – | – | – | –
2 | COc1ccc2c(c1)C(CN(C)C)(C1(O)CCCCC1)C2 (configuration not stated) [S33005] | > 10 | > 10 | > 10 | > 10 | > 10 | > 10 | > 10 | > 10 | 0.00195 | 0.178 | > 10 | > 10 | > 10 | 1.51
3 | CN(C)CCCC1(c2ccc(F)cc2)OCc2cc(C#N)ccc21 (configuration not stated) | > 10 | – | – | > 10 | > 10 | – | > 10 | > 10 | – | – | – | > 10 | – | –
4 | CN(C)CCCN1c2ccccc2CCc2ccc(Cl)cc21 [CLOMIPRAMINE HYDROCHLORIDE] | 0.525 | 0.0776 | 0.0646 | > 10 | > 10 | 0.0032 | > 10 | > 10 | – | – | 3.02 | – | 1.23 | –
